Laboratory results taken from patent US10952432B2, “Cannabidiol compositions and uses thereof” (PHARMOTECH SA, priority 2016, dated 2021).

Tests used:
[1] = test system: elastase produced by P. aeruginosa PAOW1(PT5); assay: Elastase production measured by Elastin Congo Red enzymatic activity; assay type: cell-based, Pseudomonas aeruginosa; details: CBD 500 μg/ml, overnight culture of wt strain, absorption at 495 nm normalized to cell density
Procedure: Elastase production was measured in two bacterial strains: Pseudomonas aeruginosa PAOW1(PT5) that is a wild type (wt) and Pseudomonas aeruginosa ΔlasIΔrhlI that is a mutant for quorum sensing signaling that has reduced production/expression of elastase due to the inhibition of the quorum sensing system. […] Insoluble ECR was removed by centrifugation and the absorption of the supernatant was measured at 495 nm and normalized according to cell density.

[2] = test system: Pseudomonas aeruginosa ATCC 27853; assay: Biofilm formation, crystal violet staining; assay type: cell-based
Procedure: Overnight pre-cultures of Pseudomonas aeruginosa ATCC 27853 strain were diluted to an OD600 (optical density measured at a wavelength of 600 nm) of 0.1 in 2 ml of LB (lysogeny broth) medium into polypropylene tubes. […] Planktonic cells were removed by washing once with distilled water and biofilms were stained with crystal violet (CV, 1% in water) for 30 minutes. CV was discarded and tubes were rinsed twice with water to remove excess of dye. The stained biofilms were re-suspended in 33% acetic acid and their density was evaluated by measuring the OD600 of the suspensions normalized for bacterial density.

[3] = test system: methicillin-resistant Staphylococcus aureus (MRSA) strains; details: Appendino et al., 2008; cited from earlier work
CB2 receptors = CB2 receptors (Homo sapiens, UniProt P34972); details: compared with THC; cited from earlier work
Chain of CB2 receptors (P34972 whole entry): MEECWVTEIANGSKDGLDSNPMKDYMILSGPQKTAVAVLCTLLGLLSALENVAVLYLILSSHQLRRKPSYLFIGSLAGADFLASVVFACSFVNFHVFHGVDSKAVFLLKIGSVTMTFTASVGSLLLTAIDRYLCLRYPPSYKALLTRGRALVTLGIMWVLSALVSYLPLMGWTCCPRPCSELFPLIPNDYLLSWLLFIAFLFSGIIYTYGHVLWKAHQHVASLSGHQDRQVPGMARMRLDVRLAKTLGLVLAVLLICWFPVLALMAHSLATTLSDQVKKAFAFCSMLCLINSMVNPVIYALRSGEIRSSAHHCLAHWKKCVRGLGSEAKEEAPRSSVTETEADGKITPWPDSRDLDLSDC

Row | Compound | reduction of the production of elastase as compared to control [1] | reduction of biofilm formation by a factor, as compared to control without CBD ([2]; CBD 1.9 μg/ml to 31.25 μg/ml, 12 h at 37° C., LB medium, OD600 normalized for bacterial density) | inhibitory effect on biofilm formation at higher concentration ([2]; higher concentration of CBD (62.5 and 125 μg/ml tested), probably due to reduced solubility in culture medium) | activity against a variety of MRSA strains [3] | affinity for CB2 receptors (CB2 receptors)
1 | C=C(C)[C@@H]1CCC(C)=C[C@H]1c1c(O)cc(CCCCC)cc1O [CBD, 2-[(1R,6R)-6-isopropenyl-3-methylcyclohex-2-en-1-yl]-5-pentylbenzene-1,3-diol] | about 30% | about 2 | inhibitory effect on biofilm formation is reduced | having activity | very low affinity
2 | C=C(C)[C@@H]1CCC(C)=C[C@H]1c1c(O)cc(O)cc1CCCCC [abn-CBD, reference compound] | – | – | – | having activity | –
